Reference: PubChem BioAssay (NCI)
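Values below derive from 48-hour exposures of cells grown in 96-well plates, with endpoints linearly interpolated between the two concentrations bracketing the appropriate inhibition level. GI50: concentration for 50% inhibition of growth. TGI is the concentration that stops growth completely.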

Key:
Assay in all cases: NCI-60 cell line screen, 48 h
CCRF-CEM leukemia = system: CCRF-CEM leukemia
DMS 114 small cell lung = system: DMS 114 small cell lung
786-0 renal = system: 786-0 renal
HOP-62 NSCLC = system: HOP-62 NSCLC
TK-10 renal = system: TK-10 renal
HCT-116 colon = system: HCT-116 colon
SK-OV-3 ovarian = system: SK-OV-3 ovarian
HOP-18 NSCLC = system: HOP-18 NSCLC
MDA-MB-435 = system: MDA-MB-435
T-47D breast = system: T-47D breast

Row | SMILES | TGI (CCRF-CEM leukemia) [µM] | TGI (DMS 114 small cell lung) [µM] | TGI (786-0 renal) [µM] | TGI (HOP-62 NSCLC) [µM] | TGI (TK-10 renal) [µM] | TGI (HCT-116 colon) [µM] | TGI (SK-OV-3 ovarian) [µM] | TGI (HOP-18 NSCLC) [µM] | GI50 (CCRF-CEM leukemia) [µM] | GI50 (MDA-MB-435) [µM] | TGI (MDA-MB-435) [µM] | GI50 (786-0 renal) [µM] | GI50 (HOP-62 NSCLC) [µM] | GI50 (TK-10 renal) [µM] | GI50 (HCT-116 colon) [µM] | GI50 (SK-OV-3 ovarian) [µM] | GI50 (T-47D breast) [µM] | TGI (T-47D breast) [µM]
1 | CCOP(=O)(OCC)C(C(=O)OC)C(=O)C(=O)Nc1ccc(Cl)cc1Cl (stereo not given) | > 100 | > 100 | > 100 | > 100 | > 100 | > 100 | > 100 | > 100 |  |  |  |  |  |  |  |  |  | 
2 | Cc1cc2c(c(C(N)=O)c1C)-c1ccccc1C2=O | > 100 | > 100 | > 100 | > 100 | > 100 | > 100 | > 100 | > 100 |  |  |  |  |  |  |  |  |  | 
3 | COC(=O)/C([Se]c1c(C)cc(C)cc1C)=C(/[Se]c1c(C)cc(C)cc1C)C(=O)OC | > 100 | > 100 | > 100 | > 100 | > 100 | > 100 | > 100 | > 100 |  |  |  |  |  |  |  |  |  | 
4 | CCOC(=O)NC(=O)c1cn(C2CCCCC2)c(=O)[nH]c1=O | > 100 |  | > 100 | > 100 | > 100 | > 100 | > 100 | > 100 |  |  |  |  |  |  |  |  |  | 
5 | CC(=O)N1CCN(c2ccc(OCC3COC(Cn4ccnc4)(c4ccc(Cl)cc4Cl)O3)cc2)CC1 (stereo not given) | > 100 | 43.7 | > 100 | > 100 | 99.9 | 76.6 | > 100 | > 100 |  |  |  |  |  |  |  |  |  | 
6 | COc1c(C)n(CCO)ccc1=O | > 100 | > 100 | > 100 | > 100 | > 100 | > 100 | > 100 |  |  |  |  |  |  |  |  |  |  | 
7 | COc1ccc(CC2c3c(cc(OC)c(OC)c3OC)CCN2C)cc1OC (stereo not given) | > 100 |  | > 100 | > 100 | > 100 | > 100 |  | > 100 |  |  |  |  |  |  |  |  |  | 
8 | Cc1[nH]c2ccccc2c1C1Cc2ccccc2N1C(=O)C#Cc1ccc([N+](=O)[O-])cc1 (stereo not given) | > 100 | > 100 | > 100 | > 100 | > 100 | > 100 | > 100 | > 100 |  |  |  |  |  |  |  |  |  | 
9 | O=C(N/C(=C\c1ccc([N+](=O)[O-])cc1)c1nc2ccccc2[nH]1)c1ccccc1 |  | > 100 | > 100 | > 100 | > 100 | > 100 |  | > 100 |  |  |  |  |  |  |  |  |  | 
10 | CC(C)=C1CCC(CN(C)C)C1=O (stereo not given) | 27.7 | 38.4 | 25.9 |  | 31 | 30.3 |  | 36.6 |  |  |  |  |  |  |  |  |  | 
11 | COc1cc(/C=C2\[C@H]3c4c(c(OC)c(C)c(OC)c4OC)CC(C(=O)N2Cc2ccccc2)N3C)c(OC)c(C)c1OC | 42.5 |  | 40.6 | 35.1 | 79.2 | > 100 | 92 | 50.2 |  |  |  |  |  |  |  |  |  | 
12 | Nc1c(-c2ccccc2-c2c(N)[n+]([O-])c3ccccc3[n+]2[O-])[n+]([O-])c2ccccc2[n+]1[O-] | > 28.4 | 27.2 | > 100 |  | > 100 | 74.6 | > 100 | > 86 |  |  |  |  |  |  |  |  |  | 
13 | O=C(CC(=O)C1CCOC1=O)C(=O)Nc1cccc(Cl)c1 (stereo not given) |  | > 100 | > 100 | > 100 | > 100 | > 100 | > 100 | > 100 |  |  |  |  |  |  |  |  |  | 
14 | CCN1c2ccccc2-c2c3c1cc(C)cc3c1ccccc1[n+]2CC | 2.83 | 5.84 | 4.22 | 5.15 | 9.66 | 3.89 | 5.68 |  |  |  |  |  |  |  |  |  |  | 
15 | Cn1c(=O)nc2n(-c3cc(C(F)(F)F)cc(C(F)(F)F)c3)c3ccccc3nc-2c1=O |  | > 100 | > 100 | > 100 | > 100 | > 100 | > 100 |  |  |  |  |  |  |  |  |  |  | 
16 | CN(C(=O)c1ccc([N+](=O)[O-])cc1)c1ccccc1 | > 100 | > 10 | > 100 | > 100 |  | > 100 | > 100 | > 100 |  |  |  |  |  |  |  |  |  | 
17 | O=C(Nc1cc(Nc2ncccc2-c2ncnc3nc[nH]c23)ccc1F)c1cc(C(F)(F)F)cc(C(F)(F)F)c1 | > 10 |  | 9.52 | > 10 | > 10 | 2.72 | 9.19 |  | 2.97 | 0.996 | > 10 | 3.55 | 1.15 | 3.75 | 0.601 | 2.78 | 4.24 | > 10
18 | COC(=O)C(=O)C(C(C)=O)C(=O)NCc1ccc(OC)c(OC)c1 (stereo not given) | > 100 | > 100 | > 100 | > 100 | > 100 | > 100 | > 100 | > 100 |  |  |  |  |  |  |  |  |  | 
19 | O=C(NCc1ccc(Cn2c(=O)sn(-c3ccccc3)c2=O)cc1)OCc1ccc2cccc(O)c2n1 | > 100 |  | 1.08 | 3.52 | 1.62 | 1.14 | 18.7 |  | 0.359 | 0.709 | 2.03 | 0.484 | 1.55 | 0.571 | 0.259 | 5.96 | 1.49 | 4.59
20 | NNCCc1ccc(NC(=O)CCCc2ccc(C(=O)Nc3ccccc3N)cc2)cc1 | > 100 |  | > 100 | > 100 | > 100 | > 100 | > 100 |  | 3.35 | 9.71 | > 100 | 15.7 | 10.8 | 2.03 | 2.75 | 18.2 | 4.34 | > 100
21 | O=c1[nH]cnc(NC2C=C(CO)C(O)C2O)c1[N+](=O)[O-] (stereo not given) | > 100 | > 84.7 | > 64.3 | > 100 | > 100 | > 53.1 | > 100 | > 100 |  |  |  |  |  |  |  |  |  | 
22 | CC(C)(C)c1ccc2c(c1)S(=O)(=O)Nc1ccc(Cl)cc1NS(=O)(=O)c1cc(C(C)(C)C)ccc1OCCOCCOCCO2 | > 100 | > 100 | > 100 | > 100 | > 100 | > 100 | 86.3 | > 100 |  |  |  |  |  |  |  |  |  | 
23 | Cc1cccc(C2=C/C(=C(\SS/C(C(=O)c3ccc(OCC(=O)O)c(Cl)c3Cl)=C3\C=C(c4cccc(C)c4)SS3)C(=O)c3ccc(OCC(=O)O)c(Cl)c3Cl)SS2)c1 | 19.4 | 17.7 | 41.7 | > 100 | > 88.2 | > 53.8 | > 100 | 50.5 |  |  |  |  |  |  |  |  |  | 
24 | CCC1CN2CCc3cc(OC)c(OC)cc3C2CC1CC1c2cc(OC)c(OC)cc2CCN1C(=O)C1CCCN1 (stereo not given) | 64.8 |  | 54.8 | 71.2 | > 100 | 55 | 98.5 | > 100 |  |  |  |  |  |  |  |  |  | 
